One assay addresses T1, PKC-beta (Homo sapiens, UniProt P05771).
T1 construct: purchased Cell Signaling, Danvers, Mass
Nature of the assay: In vitro kinase assay PKC-beta (HTScan kit). Type of assay: biochemical. The settings on record: CID-2858522 up to 8 μM; STS 0.5 μM; PKC inhibitor 1 μM. The procedure:
(§1) CID-2858522 (8 μM) were tested in in vitro IKK beta (A), PKC beta […] or PKC theta (C) kinase assays using kits. STS (0.5 μM), IKK inhibitor (10 μM) and PKC inhibitor (1 μM) were used as positive controls.
(§2) In Vitro Kinase Assays. PKC-beta, PKC-theta and IKK-beta in vitro kinase assays were performed using the HTScan Kinase Assay Kit (Cell Signaling, Danvers, Mass.) according to manufacturer's protocols. A panel of >300 kinases was screened by Ambit, Inc.

The subject of another assay is c-FLIP processing. The experiment in a line: PMA/Ionomycin-induced c-FLIP processing in HEK293 cells (immunoblot). The following applies: CID-2858522 4 μM, PKC inhibitor 1 μM. Type of assay: cell-based. How it is done:
FIG. 7. CID-285852 inhibits IKKβ phosphorylation induced by PKC activators. (A) HEK293 cells were cultured in 0.5% FBS medium for 24 h and then treated with CID-2858522 (4 μM) or PKC inhibitor, Bisindolylmaleimide I (1 μM) for 2 hrs followed by PMA/Ionomycin (10 ng/mL; 5 ng/mL) for 2 h. Cell lysates were subjected to immunoprecipitation using anti-CARMA1 antibody and analyzed by immunoblotting with anti-phospho-CARMA1 antibody or anti-CARMA1 antibody. (B-E) HEK293 cells were transfected with plasmids encoding myc-CARMA1 in combination with plasmids encoding various other proteins including Caspase-8 (cys287ala) (B), HA-IKK-γ (C), HA-TAK1 (D), and TRAF6 (E). […] Cell lysates were immunoprecipated using anti-myc antibody and analyzed by immunoblotting using anti-Caspase8 (B), anti-HA (C,D), or anti-TRAF6 (E) antibodies. […] Cell lysates were normalized for protein content and analyzed by immunoblotting using anti-FLIP and anti-alpha-tubulin antibodies. […] Cell lysates were immunoprecipitated using anti-IKK-β and analyzed by immunoblotting using anti-phospho-IKK-β antibody or anti-IKK-β antibody (as loading control). […]
Caspase-8 plays an essential role in antigen receptor-mediated NF-κB activation. […] We then assessed the effects of CID-2858522 on PMA-induced proteolytic processing of c-FLIP, a Caspase-8-mediated event recently shown to be required for antigen receptor mediated NF-κB activation.

A further assay has as its target T2, IKK-beta (Homo sapiens, UniProt O14920).
T2 construct: purchased Cell Signaling, Danvers, Mass
The experiment in a line: In vitro kinase assay IKK-beta (HTScan kit). The format is biochemical. The settings on record: CID-2858522 up to 8 μM; STS 0.5 μM; IKK inhibitor 10 μM. How it is done: as §1, §2

Assay [1] deals with NOD2 (NLRC2) induced NF-κB-luciferase reporter gene activity. The experiment in a line: NF-κB reporter in HEK293-NF-κB-luc cells over-expressing NOD2. Type of assay: cell-based. The following applies: CID-2858522 4 μM, IKK inhibitor 10 μM. The procedure:
(§3) FIGS. 3 (A-F) HEK293-NF-κB-luc cells were pretreated with CID-2858522 (4 μM), IKK inhibitor, BMS-335541 (10 μM), or PKC inhibitor, Bisindolylmaleimide I (1 μM) for 2 hrs and then transfected with plasmids encoding CD4/TLR4 (A), CD40 (B), NOD1 (C), NOD2 (D), cIAP2-MALT1 (E), or XIAP and TAB (F), or pcDNA as control (compounds were not removed). After 48 hrs, luciferase activity was measured expressing data as fold increase relative to unstimulated cells (mean±SD; n=3). (G-H) HEK293-NF-κB-luc cells were pretreated with CID-2858522 (4 μM), or IKK inhibitor, BMS-335541 (10 μM) for 2 hrs and then cultured with 2 μM doxorubicin (G) or 16 μM retinoic acid (H). After 48 hrs, luciferase activity was measured as above.
(§4) Counter Screening and Secondary Assays. To counter-screen for inhibitors of the TNF pathway, HEK293-NFκB-Luc cells were seeded at 10^5 cells per well in 90 μL medium in white 96-well plates (Greiner Bio-One) and cultured overnight, before adding compounds (5 μL in medium) to cells. […] Luciferase activity was measured using Britelite kit (Perkin Elmer). […] Cells were cultured in medium containing CID-2858522 or other compounds and luciferase activity was measured 48 h later. […] Reactions were then initiated by addition of 50 μL 160 nM ATP (Sigma) in PBS and luciferase activity was measured 2 h later using a luminometer (LJL Biosystems, Sunnyvale, Calif.).

For assay [2], the system named is doxorubicin-induced NF-κB activity. Nature of the assay: NF-κB reporter in HEK293-NF-κB-luc cells stimulated with doxorubicin. The following applies: 2 μM doxorubicin; CID-2858522 4 μM, IKK inhibitor 10 μM. Type of assay: cell-based. How it is done:
as §3, §4

Assay [3] concerns XIAP plus TAB induced NF-κB activation. Nature of the assay: NF-κB reporter in 293-NF-κB-luciferase cells transfected with XIAP plus TAB. The format is cell-based. The settings on record: CID-2858522 4 μM, IKK inhibitor 10 μM. How it is done:
as §3
Counter Screening and Secondary Assays. To counter-screen for inhibitors of the TNF pathway, HEK293-NFκB-Luc cells were seeded at 10^5 cells per well in 90 μL medium in white 96-well plates (Greiner Bio-One) and cultured overnight, before adding compounds (5 μL in medium) to cells. After 2 h incubation, 5 μL TNF (200 ng/mL) (R&D Systems) was added (final concentration 10 ng/mL) and cells were incubated for 16 h. Luciferase activity was measured using Britelite kit (Perkin Elmer). To counter-screen for inhibitors of NF-κB induced by TLR4, CD40, NOD1, NOD2, cIAP2/MALT, or XIAP/TAB, the 293-NF-κB-luc cells cultured in 96 well plates as above were pretreated with compounds for 2 h and then transfected using Lipofectamine 2000 with various plasmids including pcDNA3 (“empty vector” control) or plasmids encoding CD4-TLR4, CD40, NOD1, NOD2, cIAP2/MALT, XIAP/TAB, using 0.2 μL of transfection reagent containing 100 ng DNA per well. Cells were cultured in medium containing CID-2858522 or other compounds and luciferase activity was measured 48 h later. […] Reactions were then initiated by addition of 50 μL 160 nM ATP (Sigma) in PBS and luciferase activity was measured 2 h later using a luminometer (LJL Biosystems, Sunnyvale, Calif.).

In assay [4] the test system is NOD1 (NLRC1) induced NF-κB-luciferase reporter gene activity. The experiment in a line: NF-κB reporter in HEK293-NF-κB-luc cells over-expressing NOD1. The following applies: CID-2858522 4 μM, IKK inhibitor 10 μM. The format is cell-based. The procedure: as §3, §4

SMILES strings stand for the structures. “Also recorded” adds a separate entry of the source.

The values that follow come from patent publication US20090247520A1, “INHIBITORS OF ANTIGEN RECEPTOR-INDUCED NF-kappa B ACTIVATION” (The Burnham Institute for Medical Research, priority 2008, published 2009).

T2 sequence (O14920 whole entry): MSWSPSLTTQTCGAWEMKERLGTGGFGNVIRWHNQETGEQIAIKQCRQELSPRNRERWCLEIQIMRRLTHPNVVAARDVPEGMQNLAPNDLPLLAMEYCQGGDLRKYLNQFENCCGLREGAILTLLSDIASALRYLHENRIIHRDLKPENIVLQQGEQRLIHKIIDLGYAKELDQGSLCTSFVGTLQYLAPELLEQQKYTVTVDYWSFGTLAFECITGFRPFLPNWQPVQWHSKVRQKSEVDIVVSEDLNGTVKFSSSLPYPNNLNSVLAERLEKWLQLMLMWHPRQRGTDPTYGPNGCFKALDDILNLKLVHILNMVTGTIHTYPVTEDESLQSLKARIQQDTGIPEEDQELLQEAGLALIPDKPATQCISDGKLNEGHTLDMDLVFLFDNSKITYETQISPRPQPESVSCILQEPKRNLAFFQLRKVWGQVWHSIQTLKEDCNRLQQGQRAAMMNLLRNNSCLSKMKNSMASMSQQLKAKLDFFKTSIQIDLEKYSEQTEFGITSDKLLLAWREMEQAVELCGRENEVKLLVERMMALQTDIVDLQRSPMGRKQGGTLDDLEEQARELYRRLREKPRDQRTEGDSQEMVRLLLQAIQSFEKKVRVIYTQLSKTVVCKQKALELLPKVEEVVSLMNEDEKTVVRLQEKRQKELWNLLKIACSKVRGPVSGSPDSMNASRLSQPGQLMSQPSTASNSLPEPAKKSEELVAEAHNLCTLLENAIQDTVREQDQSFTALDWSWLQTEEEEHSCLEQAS
T1 sequence (P05771 whole entry): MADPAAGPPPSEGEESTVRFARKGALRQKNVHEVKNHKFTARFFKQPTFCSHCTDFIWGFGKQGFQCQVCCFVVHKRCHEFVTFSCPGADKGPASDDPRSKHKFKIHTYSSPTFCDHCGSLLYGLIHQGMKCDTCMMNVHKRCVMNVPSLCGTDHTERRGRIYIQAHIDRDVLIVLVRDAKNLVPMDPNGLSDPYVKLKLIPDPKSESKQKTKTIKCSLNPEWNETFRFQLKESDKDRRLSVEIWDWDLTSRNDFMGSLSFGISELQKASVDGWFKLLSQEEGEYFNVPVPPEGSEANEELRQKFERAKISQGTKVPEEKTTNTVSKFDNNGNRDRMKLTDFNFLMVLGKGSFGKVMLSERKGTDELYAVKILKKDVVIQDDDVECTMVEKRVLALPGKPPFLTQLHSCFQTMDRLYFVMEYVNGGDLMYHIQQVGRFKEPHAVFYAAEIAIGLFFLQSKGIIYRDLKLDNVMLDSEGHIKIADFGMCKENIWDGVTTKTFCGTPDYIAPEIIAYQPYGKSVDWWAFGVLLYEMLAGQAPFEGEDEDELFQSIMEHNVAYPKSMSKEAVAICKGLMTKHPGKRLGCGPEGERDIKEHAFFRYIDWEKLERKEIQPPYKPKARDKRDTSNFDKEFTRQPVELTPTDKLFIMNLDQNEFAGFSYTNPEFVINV

Turning to `CN(C)CCCn1cc(C2=C(c3c[nH]c4ccccc34)C(=O)NC2=O)c2ccccc21` [Bisindolylmaleimide I, reference compound], at PKC-beta, the “inhibition of PKC-beta kinase activity” value is on record as “potent inhibition”. For the same compound, in the assay with c-FLIP processing, the “inhibition of c-FLIP processing” value is “completely inhibited”.
For `Cc1cc2nc(NCCCO)n(CC(=O)c3cc(C(C)(C)C)c(O)c(C(C)(C)C)c3)c2cc1C` [Compound 1, 2-(2-(3-Hydroxypropylamino)-5,6-dimethyl-1H-benzo[d]imidazol-1-yl)-1-(3,5-di-tert-butyl-4-hydroxyphenyl)ethanone], at IKK-beta, the “inhibition of IKK-beta kinase activity” value is listed as “failed to suppress”. Besides, the “inhibition of NOD2-induced NF-κB reporter” value in assay [1] is “did not inhibit”. Moreover, the “suppression of doxorubicin-induced NF-κB activity” value in assay [2] is reported as “did not inhibit”. Also, at PKC-beta, the “inhibition of PKC-beta kinase activity” value is given as “failed to suppress”. For the same compound, the “suppression of XIAP plus TAB-driven NF-κB activation” value is listed as “did not inhibit” in assay [3] and “did not” in assay [3] (listed as CID-288522). In the assay with c-FLIP processing, the “inhibition of c-FLIP processing” value is “not affected”. Moreover, the “inhibition of NOD1-induced NF-κB reporter” value in assay [4] is “did not inhibit; also recorded: not by CID-2858522”.
On to `Cc1ccc2nc(NCCN)c3ncc(C)n3c2c1` [BMS-345541, reference compound], for which the “inhibition of IKK-beta kinase activity” value on IKK-beta is “potent inhibition”. In assay [1], the “inhibition of NOD2-induced NF-κB reporter” value is given as “inhibited”. Also, in assay [2], the “suppression of doxorubicin-induced NF-κB activity” value is “suppressed”. Besides, the “suppression of XIAP plus TAB-driven NF-κB activation” value in assay [3] is reported as “effectively suppressed”. Also, the “inhibition of NOD1-induced NF-κB reporter” value in assay [4] is “inhibited”.
